Results taken from US7074789B2, “Kinase inhibitors” (Amgen Inc., priority 1999, dated 2006).

Columns and labels:
Type in all cases: biochemical
Lck = target: T1, Lck (Homo sapiens, UniProt P06239); assay: Kinase inhibition assay (33P transfer), Lck; settings: read-out: Lck-1
T1 construct: Kinases are expressed as either kinase domains or full length constructs; made in house
Method in brief: (§1)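 33P-ATP transfer to coated synthetic polymer substrates; acid wash (0.5% H3PO4), scintillant, liquid scintillation count. Enzymes: His- or GST-fusion kinases from E. coli or High Five insect cells.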

Fyn = target: T2, Fyn (Homo sapiens, UniProt P06241); assay: Kinase inhibition assay (33P transfer), Fyn; settings: read-out: Fyn-1
T2 construct: Kinases are expressed as either kinase domains or full length constructs; made in house
Method in brief: (§2)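 Radiometric format: recombinant tagged kinase (catalytic domain or whole protein, sometimes combined with regulatory polypeptides) phosphorylates immobilised poly(Glu,Tyr) 4:1 or poly(Arg,Ser) 3:1 using [33P]ATP. Wells are washed in 0.5% phosphoric acid, then counted. IC50 is taken where substrate labelling falls by half.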

Ret-1 = target: T3, Ret-1 (Homo sapiens, UniProt P07949); assay: Kinase inhibition assay (33P transfer), Ret; settings: Table 6, Ret-1 kinase inhibition class
T3 construct: Kinases are expressed as either kinase domains or full length constructs; made in house

Tek = target: T4, Tek (Homo sapiens, UniProt Q02763); assay: Kinase inhibition assay (33P transfer), Tek; settings: read-out: Tek-1
T4 construct: Kinases are expressed as either kinase domains or full length constructs; made in house
Method in brief: as §2

ErbB4 = target: T5, ErbB4 (Homo sapiens, UniProt Q15303); assay: Kinase inhibition assay (33P transfer), ErbB4; settings: read-out: ErbB4-1
T5 construct: Kinases are expressed as either kinase domains or full length constructs; made in house

PDGFRB = target: T6, PDGFRB (Homo sapiens, UniProt P09619); assay: Kinase inhibition assay (33P transfer), PDGFRB; settings: read-out: PDGFRB-1
T6 construct: Kinases are expressed as either kinase domains or full length constructs; made in house

c-Met = target: T7, c-Met (Homo sapiens, UniProt P08581); assay: Kinase inhibition assay (33P transfer), c-Met; settings: Table 2, kinase inhibition class; read-out: Met-1
T7 construct: Kinases are expressed as either kinase domains or full length constructs; made in house
Method in brief: as §2

EGFR = target: T8, EGFR (Homo sapiens, UniProt P00533); assay: Kinase inhibition assay (33P transfer), EGFR; settings: Table 2, kinase inhibition class; read-out: EGFR-1
T8 construct: Kinases are expressed as either kinase domains or full length constructs; made in house
Method in brief: as §2

Kdr = target: T9, Kdr (Homo sapiens, UniProt P35968); assay: Kinase inhibition assay (33P transfer), Kdr; settings: read-out: KDR-1
T9 construct: Kinases are expressed as either kinase domains or full length constructs; made in house
Method in brief: as §1

AKT = target: T10, AKT (Homo sapiens, UniProt Q9Y243); assay: Kinase inhibition assay (33P transfer), AKT; settings: Table 2, kinase inhibition class; read-out: AKT3-1
T10 construct: Kinases are expressed as either kinase domains or full length constructs; made in house
Method in brief: as §1

Lyn = target: T11, Lyn (Homo sapiens, UniProt P07948); assay: Kinase inhibition assay (33P transfer), Lyn; settings: Table 6, Lyn-1 kinase inhibition class
T11 construct: Kinases are expressed as either kinase domains or full length constructs; made in house
Method in brief: as §2

IGFR-1 = target: T12, IGFR-1 (Homo sapiens, UniProt P08069); assay: Kinase inhibition assay, IGFR-1 (Table 2); settings: Table 2, kinase inhibition class
T12 construct: Kinases are expressed as either kinase domains or full length constructs; made in house

Src = target: T13, Src (Homo sapiens, UniProt P12931); assay: Kinase inhibition assay (33P transfer), Src; settings: Table 6, Src-1 kinase inhibition class
T13 construct: Kinases are expressed as either kinase domains or full length constructs; made in house
Method in brief: as §2

Itk = target: T14, Itk (Homo sapiens, UniProt Q08881); assay: Kinase inhibition assay (33P transfer), Itk; settings: read-out: Itk-1
T14 construct: Kinases are expressed as either kinase domains or full length constructs; made in house
T14 sequence (Q08881 1-620): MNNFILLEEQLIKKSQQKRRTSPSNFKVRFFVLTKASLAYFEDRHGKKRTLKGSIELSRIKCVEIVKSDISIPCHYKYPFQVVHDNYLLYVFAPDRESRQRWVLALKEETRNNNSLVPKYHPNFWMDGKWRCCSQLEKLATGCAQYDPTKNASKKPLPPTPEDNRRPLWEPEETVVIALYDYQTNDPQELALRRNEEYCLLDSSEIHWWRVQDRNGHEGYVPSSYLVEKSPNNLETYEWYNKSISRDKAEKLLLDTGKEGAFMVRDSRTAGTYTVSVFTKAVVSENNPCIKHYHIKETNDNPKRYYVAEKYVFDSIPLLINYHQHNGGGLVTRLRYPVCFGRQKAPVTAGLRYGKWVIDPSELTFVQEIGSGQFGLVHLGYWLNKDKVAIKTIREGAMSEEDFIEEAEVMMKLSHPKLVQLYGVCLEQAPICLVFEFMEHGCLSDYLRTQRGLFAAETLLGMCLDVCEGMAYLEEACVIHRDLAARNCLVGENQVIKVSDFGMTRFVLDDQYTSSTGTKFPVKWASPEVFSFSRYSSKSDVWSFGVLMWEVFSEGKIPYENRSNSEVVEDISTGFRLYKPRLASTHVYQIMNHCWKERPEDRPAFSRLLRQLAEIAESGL
Method in brief: as §2

Hck-1 = target: T15, Hck-1 (Homo sapiens, UniProt P08631); assay: Kinase inhibition assay (33P transfer), Hck; settings: Table 6, Hck-1 kinase inhibition class
T15 construct: Kinases are expressed as either kinase domains or full length constructs; made in house

Zap-70 = target: T16, Zap-70 (Homo sapiens, UniProt P43403); assay: Kinase inhibition assay (33P transfer), Zap-70; settings: read-out: Zap-1
T16 construct: Kinases are expressed as either kinase domains or full length constructs; made in house
T16 sequence (P43403 1-619): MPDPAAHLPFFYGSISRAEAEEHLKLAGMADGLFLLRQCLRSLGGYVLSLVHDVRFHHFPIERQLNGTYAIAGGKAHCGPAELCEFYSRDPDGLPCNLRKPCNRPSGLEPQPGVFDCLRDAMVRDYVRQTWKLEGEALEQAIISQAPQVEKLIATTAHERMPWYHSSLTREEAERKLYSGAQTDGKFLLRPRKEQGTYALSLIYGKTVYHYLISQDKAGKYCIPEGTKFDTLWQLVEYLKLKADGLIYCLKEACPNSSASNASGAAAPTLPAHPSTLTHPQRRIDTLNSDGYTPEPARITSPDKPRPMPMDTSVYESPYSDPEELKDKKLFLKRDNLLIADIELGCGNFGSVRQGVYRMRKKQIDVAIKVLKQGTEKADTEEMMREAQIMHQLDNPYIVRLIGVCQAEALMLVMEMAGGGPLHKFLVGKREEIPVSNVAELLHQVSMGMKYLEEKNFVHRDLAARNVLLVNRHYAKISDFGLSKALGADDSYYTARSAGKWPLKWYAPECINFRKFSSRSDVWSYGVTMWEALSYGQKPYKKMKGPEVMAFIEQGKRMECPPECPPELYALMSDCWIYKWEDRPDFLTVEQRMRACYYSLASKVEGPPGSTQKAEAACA
Method in brief: as §1

FGFR1 = target: T17, FGFR1 (Homo sapiens, UniProt P11362); assay: Kinase inhibition assay (33P transfer), FGFR1; settings: read-out: FGFR1-1
T17 construct: Kinases are expressed as either kinase domains or full length constructs; made in house

Flt-1 = target: T18, Flt-1 (Homo sapiens, UniProt P17948); assay: Kinase inhibition assay (33P transfer), Flt-1
T18 construct: Kinases are expressed as either kinase domains or full length constructs; made in house
Method in brief: as §2

ErbB2 = target: T19, ErbB2 (Homo sapiens, UniProt P04626); assay: Kinase inhibition assay (33P transfer), ErbB2; settings: read-out: ErbB2-2
T19 construct: Kinases are expressed as either kinase domains or full length constructs; made in house
Method in brief: as §2

T8 sequence (P00533 25-1210, species assumed): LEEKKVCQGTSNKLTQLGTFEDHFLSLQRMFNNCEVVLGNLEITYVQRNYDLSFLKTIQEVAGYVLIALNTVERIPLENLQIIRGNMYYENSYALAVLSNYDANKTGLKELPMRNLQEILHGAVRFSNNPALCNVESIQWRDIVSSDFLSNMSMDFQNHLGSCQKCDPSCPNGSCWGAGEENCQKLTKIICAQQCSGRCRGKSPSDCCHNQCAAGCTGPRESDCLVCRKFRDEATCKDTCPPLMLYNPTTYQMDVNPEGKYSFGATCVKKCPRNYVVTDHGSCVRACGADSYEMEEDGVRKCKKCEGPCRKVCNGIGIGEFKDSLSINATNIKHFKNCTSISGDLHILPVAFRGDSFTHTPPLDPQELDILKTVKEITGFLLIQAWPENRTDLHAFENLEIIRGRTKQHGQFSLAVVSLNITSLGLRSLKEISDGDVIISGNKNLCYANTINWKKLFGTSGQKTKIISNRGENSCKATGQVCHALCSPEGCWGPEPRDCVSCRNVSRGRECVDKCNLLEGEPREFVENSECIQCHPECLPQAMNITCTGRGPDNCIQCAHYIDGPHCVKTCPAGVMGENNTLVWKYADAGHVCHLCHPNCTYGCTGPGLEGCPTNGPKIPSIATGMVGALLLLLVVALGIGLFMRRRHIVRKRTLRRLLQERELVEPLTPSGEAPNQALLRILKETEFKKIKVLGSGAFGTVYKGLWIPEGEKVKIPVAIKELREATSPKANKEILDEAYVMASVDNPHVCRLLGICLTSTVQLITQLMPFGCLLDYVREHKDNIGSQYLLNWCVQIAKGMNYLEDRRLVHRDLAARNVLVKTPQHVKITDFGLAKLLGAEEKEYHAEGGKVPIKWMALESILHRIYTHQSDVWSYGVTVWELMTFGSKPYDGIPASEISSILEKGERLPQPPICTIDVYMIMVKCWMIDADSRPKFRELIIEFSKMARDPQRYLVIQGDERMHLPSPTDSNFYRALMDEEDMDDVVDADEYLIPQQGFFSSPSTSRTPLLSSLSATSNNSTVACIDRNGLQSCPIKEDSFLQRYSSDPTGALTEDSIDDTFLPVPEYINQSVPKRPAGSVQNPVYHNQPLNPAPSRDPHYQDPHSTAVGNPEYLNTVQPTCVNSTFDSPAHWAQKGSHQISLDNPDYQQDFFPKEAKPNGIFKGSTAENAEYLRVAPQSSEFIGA
T6 sequence (P09619 33-1106, species assumed): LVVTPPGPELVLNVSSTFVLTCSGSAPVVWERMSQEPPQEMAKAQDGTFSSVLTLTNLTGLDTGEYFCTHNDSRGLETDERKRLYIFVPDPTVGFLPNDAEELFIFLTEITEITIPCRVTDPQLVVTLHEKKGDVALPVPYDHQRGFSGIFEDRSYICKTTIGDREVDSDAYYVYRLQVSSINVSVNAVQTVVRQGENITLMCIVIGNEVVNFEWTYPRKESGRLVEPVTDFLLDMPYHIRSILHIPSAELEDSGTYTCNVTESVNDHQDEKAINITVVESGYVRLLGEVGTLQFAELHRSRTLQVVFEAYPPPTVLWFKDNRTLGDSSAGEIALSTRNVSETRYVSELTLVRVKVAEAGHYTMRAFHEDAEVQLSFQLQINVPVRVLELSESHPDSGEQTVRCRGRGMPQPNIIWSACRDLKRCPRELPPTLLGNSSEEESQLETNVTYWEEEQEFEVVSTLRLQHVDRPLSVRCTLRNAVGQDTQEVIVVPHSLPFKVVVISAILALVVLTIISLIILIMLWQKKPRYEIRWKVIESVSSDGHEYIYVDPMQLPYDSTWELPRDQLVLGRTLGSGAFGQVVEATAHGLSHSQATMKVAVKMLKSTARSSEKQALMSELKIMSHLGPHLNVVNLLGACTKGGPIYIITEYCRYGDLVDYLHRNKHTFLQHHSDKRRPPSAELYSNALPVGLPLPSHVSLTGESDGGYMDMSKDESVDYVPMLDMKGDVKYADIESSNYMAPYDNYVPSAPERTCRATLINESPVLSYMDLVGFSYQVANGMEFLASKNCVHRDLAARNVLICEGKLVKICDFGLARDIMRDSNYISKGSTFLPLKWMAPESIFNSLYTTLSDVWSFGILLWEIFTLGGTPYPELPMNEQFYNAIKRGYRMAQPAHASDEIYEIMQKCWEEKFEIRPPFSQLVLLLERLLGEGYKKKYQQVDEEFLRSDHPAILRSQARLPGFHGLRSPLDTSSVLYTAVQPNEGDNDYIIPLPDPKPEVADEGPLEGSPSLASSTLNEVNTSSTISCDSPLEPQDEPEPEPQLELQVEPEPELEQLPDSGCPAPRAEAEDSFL
T15 sequence (P08631 whole entry, the tested form may be a part): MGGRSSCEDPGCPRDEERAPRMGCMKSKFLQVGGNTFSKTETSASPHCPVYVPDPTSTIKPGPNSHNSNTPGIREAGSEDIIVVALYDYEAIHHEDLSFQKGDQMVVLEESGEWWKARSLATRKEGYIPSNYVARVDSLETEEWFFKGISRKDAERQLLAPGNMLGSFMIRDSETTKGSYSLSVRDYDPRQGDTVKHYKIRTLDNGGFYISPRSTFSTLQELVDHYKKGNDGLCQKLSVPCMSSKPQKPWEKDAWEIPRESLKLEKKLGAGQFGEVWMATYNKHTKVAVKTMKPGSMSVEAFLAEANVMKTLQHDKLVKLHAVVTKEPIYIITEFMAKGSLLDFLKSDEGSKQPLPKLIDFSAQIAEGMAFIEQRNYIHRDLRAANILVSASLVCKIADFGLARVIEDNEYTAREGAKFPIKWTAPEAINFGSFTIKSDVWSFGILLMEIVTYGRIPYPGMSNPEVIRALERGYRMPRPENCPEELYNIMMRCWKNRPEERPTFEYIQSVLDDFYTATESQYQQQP
T2 sequence (P06241 whole entry, species assumed, the tested form may be a part): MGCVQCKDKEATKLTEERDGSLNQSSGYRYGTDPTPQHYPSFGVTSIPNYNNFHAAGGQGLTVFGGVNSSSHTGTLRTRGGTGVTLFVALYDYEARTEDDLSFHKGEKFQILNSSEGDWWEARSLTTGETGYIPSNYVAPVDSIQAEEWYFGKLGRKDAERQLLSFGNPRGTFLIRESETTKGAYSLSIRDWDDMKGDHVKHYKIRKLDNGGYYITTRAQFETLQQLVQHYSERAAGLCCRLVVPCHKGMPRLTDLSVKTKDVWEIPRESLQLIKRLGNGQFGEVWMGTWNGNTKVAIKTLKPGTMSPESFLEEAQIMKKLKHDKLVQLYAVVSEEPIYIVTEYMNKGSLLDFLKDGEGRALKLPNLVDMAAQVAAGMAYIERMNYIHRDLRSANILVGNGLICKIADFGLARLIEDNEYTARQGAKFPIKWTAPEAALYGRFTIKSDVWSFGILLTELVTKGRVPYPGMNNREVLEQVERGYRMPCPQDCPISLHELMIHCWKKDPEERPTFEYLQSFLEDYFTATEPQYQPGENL
T4 sequence (Q02763 23-1124, species assumed): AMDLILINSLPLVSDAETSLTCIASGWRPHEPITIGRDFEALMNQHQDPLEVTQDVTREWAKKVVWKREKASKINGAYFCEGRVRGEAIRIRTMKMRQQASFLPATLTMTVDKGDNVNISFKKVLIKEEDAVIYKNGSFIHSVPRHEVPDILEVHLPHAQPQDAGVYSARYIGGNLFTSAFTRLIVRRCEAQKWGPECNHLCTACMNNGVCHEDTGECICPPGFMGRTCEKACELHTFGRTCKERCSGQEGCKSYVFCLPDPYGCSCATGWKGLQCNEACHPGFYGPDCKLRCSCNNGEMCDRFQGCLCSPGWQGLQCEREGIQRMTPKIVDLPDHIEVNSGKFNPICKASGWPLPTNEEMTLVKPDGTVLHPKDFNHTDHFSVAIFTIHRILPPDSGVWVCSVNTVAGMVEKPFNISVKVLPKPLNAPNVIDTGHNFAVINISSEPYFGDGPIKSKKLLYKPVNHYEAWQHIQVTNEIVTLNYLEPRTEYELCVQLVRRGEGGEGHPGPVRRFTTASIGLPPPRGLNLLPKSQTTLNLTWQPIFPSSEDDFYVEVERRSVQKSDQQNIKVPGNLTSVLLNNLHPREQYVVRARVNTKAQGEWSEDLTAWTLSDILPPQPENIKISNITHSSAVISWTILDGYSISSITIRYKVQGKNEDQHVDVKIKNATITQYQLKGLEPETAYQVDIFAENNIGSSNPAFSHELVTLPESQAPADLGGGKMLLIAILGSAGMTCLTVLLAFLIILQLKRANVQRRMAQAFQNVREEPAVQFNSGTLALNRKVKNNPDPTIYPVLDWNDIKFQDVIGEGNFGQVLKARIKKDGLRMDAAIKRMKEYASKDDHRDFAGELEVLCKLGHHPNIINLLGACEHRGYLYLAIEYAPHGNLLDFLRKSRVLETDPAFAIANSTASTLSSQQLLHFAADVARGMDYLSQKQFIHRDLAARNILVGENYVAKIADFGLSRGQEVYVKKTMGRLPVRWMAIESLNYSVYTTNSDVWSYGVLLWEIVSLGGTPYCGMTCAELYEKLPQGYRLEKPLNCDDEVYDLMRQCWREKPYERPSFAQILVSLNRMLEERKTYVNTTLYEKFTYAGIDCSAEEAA
T11 sequence (P07948 whole entry, species assumed, the tested form may be a part): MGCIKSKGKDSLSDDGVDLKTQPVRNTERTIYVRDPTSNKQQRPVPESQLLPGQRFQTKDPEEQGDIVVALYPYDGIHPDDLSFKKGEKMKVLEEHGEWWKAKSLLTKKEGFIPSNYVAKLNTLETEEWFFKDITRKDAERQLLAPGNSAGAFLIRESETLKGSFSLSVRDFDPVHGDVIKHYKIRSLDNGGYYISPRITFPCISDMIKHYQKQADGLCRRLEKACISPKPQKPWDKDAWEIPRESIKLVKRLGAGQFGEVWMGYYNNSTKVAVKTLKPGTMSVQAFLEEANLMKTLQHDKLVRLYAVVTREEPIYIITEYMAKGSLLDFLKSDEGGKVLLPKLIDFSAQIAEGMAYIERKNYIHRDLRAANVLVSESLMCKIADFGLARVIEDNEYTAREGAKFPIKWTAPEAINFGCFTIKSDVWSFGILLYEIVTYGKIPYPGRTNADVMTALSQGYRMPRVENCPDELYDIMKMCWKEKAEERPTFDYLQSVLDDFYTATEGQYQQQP

| Structure (SMILES) | IC50 (Lck) [µM] | IC50 (Fyn) [µM] | IC50 (Ret-1) [µM] | IC50 (Tek) [µM] | IC50 (ErbB4) [µM] | IC50 (PDGFRB) [µM] | IC50 (c-Met) [µM] | IC50 (EGFR) [µM] | IC50 (Kdr) [µM] | IC50 (AKT) [µM] | IC50 (Lyn) [µM] | IC50 (IGFR-1) [µM] | IC50 (Src) [µM] | IC50 (Itk) [µM] | IC50 (Hck-1) [µM] | IC50 (Zap-70) [µM] | IC50 (FGFR1) [µM] | IC50 (Flt-1) [µM] | IC50 (ErbB2) [µM] |
| --- | --- | --- | --- | --- | --- | --- | --- | --- | --- | --- | --- | --- | --- | --- | --- | --- | --- | --- | --- |
| COc1cc(Nc2ncnc(-c3c(O)[nH]c4ccc(Cl)cc34)n2)cc(OC)c1OC [Compound 517] | 0.935 to 5.61 | 5.61 to 8.18 | 5.61 to 8.18 | 5.61 to 8.18 | > 10.5 | 0.935 to 5.61 | 8.18 to 10.5 | 5.61 to 8.18 | < 0.935 | > 10.5 | 8.18 to 10.5 | 0.935 to 5.61 | > 10.5 | 8.18 to 10.5 | > 10.5 | > 10.5 | 0.935 to 5.61 | < 0.935 | 5.61 to 8.18 |
| COc1cc(Nc2ncnc(-n3c(NCc4ccc(Cl)cc4)nc4ccccc43)n2)cc(OC)c1OC [Compound 944] | > 8.69 | > 8.69 | < 0.772 | > 8.69 | > 8.69 | 0.772 to 4.63 | > 8.69 | > 8.69 | < 0.772 | > 8.69 | 4.63 to 6.76 | 6.76 to 8.69 | > 8.69 | > 8.69 | > 8.69 | > 8.69 | 0.772 to 4.63 | 0.772 to 4.63 | > 8.69 |

Continued, values first:

| IC50 (Lck) [µM] | IC50 (Fyn) [µM] | IC50 (Ret-1) [µM] | IC50 (Tek) [µM] | IC50 (ErbB4) [µM] | IC50 (PDGFRB) [µM] | IC50 (c-Met) [µM] | IC50 (EGFR) [µM] | IC50 (Kdr) [µM] | IC50 (AKT) [µM] | IC50 (Lyn) [µM] | IC50 (IGFR-1) [µM] | IC50 (Src) [µM] | IC50 (Itk) [µM] | IC50 (Hck-1) [µM] | IC50 (Zap-70) [µM] | IC50 (FGFR1) [µM] | IC50 (Flt-1) [µM] | IC50 (ErbB2) [µM] | Structure (SMILES) |
| --- | --- | --- | --- | --- | --- | --- | --- | --- | --- | --- | --- | --- | --- | --- | --- | --- | --- | --- | --- |
| 5.19 to 7.57 | > 9.73 | 0.865 to 5.19 | > 9.73 | > 9.73 | 5.19 to 7.57 | > 9.73 | > 9.73 | 0.865 to 5.19 | > 9.73 | > 9.73 | > 9.73 | > 9.73 | > 9.73 | > 9.73 | > 9.73 | 7.57 to 9.73 | > 9.73 | > 9.73 | COc1cc(Nc2ncnc(-c3cccnc3NCc3ccccc3F)n2)cc(OC)c1OC [Compound 1087] |
| < 1.01 | 1.01 to 6.05 | < 1.01 | > 11.4 | > 11.4 | < 1.01 | > 11.4 | > 11.4 | < 1.01 | > 11.4 | < 1.01 | > 11.4 | 1.01 to 6.05 | 6.05 to 8.83 | > 11.4 | > 11.4 | > 11.4 | > 11.4 | > 11.4 | COc1cc(Nc2ncnc(-c3cccnc3NC(C)C)n2)cc(OC)c1OC [Compound 1089] |
| < 1.01 | 1.01 to 6.08 | < 1.01 | > 11.4 | > 11.4 | < 1.01 | > 11.4 | > 11.4 | < 1.01 | > 11.4 | > 11.4 | > 11.4 | 1.01 to 6.08 | > 11.4 | > 11.4 | > 11.4 | 1.01 to 6.08 | 1.01 to 6.08 | > 11.4 | C=CCNc1ncccc1-c1ncnc(Nc2cc(OC)c(OC)c(OC)c2)n1 [Compound 1076] |
